Two compounds from ChEMBL document CHEMBL1156351, “A new isoquinoline alkaloid from the marine sponge Haliclona species” (J Nat Prod, 2001) can be followed below.

Converted amounts (≈) assume the structure as drawn. The source made the active and inactive calls. The calls are words filed in the database; no cut-off is given here.

Holding throughout (format): functional, cell-based
Assay [1] deals with LOX. The assay is described as follows: Cytotoxicity against human LOX cells at 50 ug/mL after 2 days by XTT assay.
Assay [2] concerns OVCAR-3. The assay is described as follows: Cytotoxicity against human OVCAR-3 cells at 50 ug/mL after 2 days by XTT assay.
Assay [3] in a line: Cytotoxicity against human LOX cells after 2 days by XTT assay. Particulars: 48 h.
The test system of assay [4] is OVCAR-3. As to the kind of experiment: Cytotoxicity against human OVCAR-3 cells after 2 days by XTT assay. Particulars: OVCAR-3, 48 h.

Take `COc1cc2c(CO)nccc2cc1O`: the result in assay [1] and in assay [2] was inactive.

Regarding `COC1=C(C)C(=O)c2cc(=O)n(C)c(C)c2C1=O` [MIMOSAMYCIN], the IC50 in assay [3] and in assay [4] was 10 µg/mL (≈ 40.4 µM) in each case.
